The target in the test is T1, ENaC (Homo sapiens, UniProt P37088+P51168+P51170).
T1 construct: host or cells: primary normal human bronchial epithelial cells, ALI culture
T1 sequence (P37088 1-669): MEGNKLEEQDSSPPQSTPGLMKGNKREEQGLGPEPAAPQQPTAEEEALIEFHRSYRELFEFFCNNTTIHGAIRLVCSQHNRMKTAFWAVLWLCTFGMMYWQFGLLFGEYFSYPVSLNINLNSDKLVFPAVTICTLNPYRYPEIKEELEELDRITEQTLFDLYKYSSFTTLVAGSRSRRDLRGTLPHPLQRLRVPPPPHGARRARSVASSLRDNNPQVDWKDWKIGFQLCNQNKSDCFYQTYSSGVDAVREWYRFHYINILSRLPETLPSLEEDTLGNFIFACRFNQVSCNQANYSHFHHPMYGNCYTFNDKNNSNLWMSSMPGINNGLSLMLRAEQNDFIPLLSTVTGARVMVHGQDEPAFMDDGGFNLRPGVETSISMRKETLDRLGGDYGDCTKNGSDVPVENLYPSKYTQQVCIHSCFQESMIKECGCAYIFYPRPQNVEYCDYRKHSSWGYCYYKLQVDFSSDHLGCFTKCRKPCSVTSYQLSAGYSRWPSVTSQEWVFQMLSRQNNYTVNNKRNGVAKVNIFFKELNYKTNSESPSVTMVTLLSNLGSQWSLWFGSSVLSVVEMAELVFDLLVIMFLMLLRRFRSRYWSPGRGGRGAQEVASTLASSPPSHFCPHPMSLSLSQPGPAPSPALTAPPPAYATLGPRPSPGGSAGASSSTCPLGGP
T1 sequence (P51168 1-640): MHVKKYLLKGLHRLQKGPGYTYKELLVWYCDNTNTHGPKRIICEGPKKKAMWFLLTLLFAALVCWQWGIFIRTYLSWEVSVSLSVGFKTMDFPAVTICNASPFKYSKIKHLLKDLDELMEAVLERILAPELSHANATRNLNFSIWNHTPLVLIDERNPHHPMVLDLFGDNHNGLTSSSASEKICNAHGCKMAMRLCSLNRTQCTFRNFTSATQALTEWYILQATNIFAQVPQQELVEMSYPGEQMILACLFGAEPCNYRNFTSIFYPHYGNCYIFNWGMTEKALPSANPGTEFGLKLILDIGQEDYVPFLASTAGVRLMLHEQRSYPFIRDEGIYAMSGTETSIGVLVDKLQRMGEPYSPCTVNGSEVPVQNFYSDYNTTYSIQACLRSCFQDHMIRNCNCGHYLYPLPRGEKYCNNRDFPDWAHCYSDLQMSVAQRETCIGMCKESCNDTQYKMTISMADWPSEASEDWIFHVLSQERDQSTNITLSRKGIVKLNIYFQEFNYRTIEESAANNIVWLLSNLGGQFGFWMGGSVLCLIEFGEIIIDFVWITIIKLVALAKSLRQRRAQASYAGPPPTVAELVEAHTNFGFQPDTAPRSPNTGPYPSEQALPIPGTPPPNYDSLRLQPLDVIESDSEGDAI
T1 sequence (P51170 1-649): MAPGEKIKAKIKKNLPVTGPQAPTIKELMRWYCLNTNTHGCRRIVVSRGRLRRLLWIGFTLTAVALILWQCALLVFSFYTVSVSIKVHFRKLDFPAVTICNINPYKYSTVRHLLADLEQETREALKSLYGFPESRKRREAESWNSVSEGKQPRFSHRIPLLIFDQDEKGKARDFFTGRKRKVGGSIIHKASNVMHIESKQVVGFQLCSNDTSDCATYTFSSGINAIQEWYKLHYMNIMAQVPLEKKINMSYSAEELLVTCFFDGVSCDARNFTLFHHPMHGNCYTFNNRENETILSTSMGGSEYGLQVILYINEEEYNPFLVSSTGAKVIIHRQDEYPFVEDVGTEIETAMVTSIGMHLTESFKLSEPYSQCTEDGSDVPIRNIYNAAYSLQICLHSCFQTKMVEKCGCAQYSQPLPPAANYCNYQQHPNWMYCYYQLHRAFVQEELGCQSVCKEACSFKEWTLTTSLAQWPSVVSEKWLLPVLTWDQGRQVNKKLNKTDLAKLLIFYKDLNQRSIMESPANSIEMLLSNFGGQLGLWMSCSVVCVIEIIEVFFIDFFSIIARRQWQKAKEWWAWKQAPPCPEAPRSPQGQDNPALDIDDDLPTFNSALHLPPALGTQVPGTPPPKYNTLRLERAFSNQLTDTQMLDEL
The test can be described thus: Ussing chamber short-circuit current (Isc) in normal HBEC ALI cultures from healthy donors. In kind it is cell-based. The method, then:
Normal human bronchial epithelial cell (HBEC) cultures from healthy donors were procured from MatTek Corporation (Ashland, MA), grown at an ALI on Transwell permeable supports (0.4 µm polycarbonate membrane, 12 mm insert, and Costar Corning), and used to test the in vitro potency of AZD5634. Using the same protocol, sheep ALI cultures were prepared from primary bronchial epithelial cells (native sheep tracheas were obtained from Öströö Sheep Farm, Sweden, and internally processed at AstraZeneca R&D, Gothenburg, Sweden) to validate AZD5634 potency at sheep ENaC. Experiments were performed using modified Ussing chambers containing carboxygenated Krebs solution (95% O2-5% CO2) at 37°C. Cell layers were allowed to equilibrate before being voltage-clamped at 0 mV, and then briefly clamped at 10 mV to assess transepithelial electrical resistance.
All data are presented as means ± SE. Values of n refer to the number of cultures used in each group as appropriate. For normally distributed data, paired or unpaired Student’s t tests were used. For data that were not normally distributed, Mann–Whitney U test and Wilcoxon-matched pairs test were used. For comparisons of multiple groups, ANOVA tests were used followed by Tukey–Kramer multiple comparisons test (parametric) or ANOVA followed by Kruskal–Wallis test (nonparametric). For experiments using primary HBECs, a minimum of four different donors supplied cultures for each experiment. For the Ussing chamber data, unconstrained concentration–response curves were fitted using an in-house Microsoft Excel add-in package by nonlinear, four parameter, logistic regression analysis. From these curves, pEC50 and Emax values were taken from which mean values were calculated.

Here are results for one substance from article PMC9602792, “Preclinical evaluation of the epithelial sodium channel inhibitor AZD5634 and implications on human translation” (American Journal of Physiology - Lung Cellular and …, 2022).

Regarding AZD5634, the “additional effect on Isc when benzamil was added” value (benzamil 10 µM on final response plateau) was “No additional effect”. In addition, the “potency of inhibition of amiloride-sensitive current (Isc) relative to amiloride” value (non-CF and CF airway cells) lay within 2 to 3 logs. Besides, where the note is “normal HBEC ALI cultures, normalized to 10 µM benzamil = 100%, read-out: IC50 for decrease in Isc (EC50 in Fig. 1A legend)”, the IC50 (as a rule, the concentration at which inhibition is half-maximal) stood at 3.8 nM. In addition, the “potency shift versus benzamil” value (normal HBEC cultures, Isc) is reported as 1 log unit.
